Reference: ChEMBL document CHEMBL3233011, “Structural modifications of CH(OH)-DAPYs as new HIV-1 non-nucleoside reverse transcriptase inhibitors” (Bioorg Med Chem, 2014)

Columns and labels:
[1] = tested on: Human immunodeficiency virus 2; experiment: Antiviral activity against HIV2 ROD infected in human MT4 cells assessed as inhibition of viral cytopathogenicity after 5 days by MTT assay; assay type: functional, organism-based; settings: Human immunodeficiency virus 2, ISOLATE ROD, MT4, 120 h
[2] = tested on: Human immunodeficiency virus 1; experiment: Antiviral activity against HIV1 3B infected in human MT4 cells assessed as inhibition of viral cytopathogenicity after 5 days by MTT assay; assay type: functional, organism-based; settings: Human immunodeficiency virus 1, 3B, MT4, 120 h
[3] = Cytotoxicity against mock-infected human MT4 cells after 5 days by MTT assay; assay type: cell-based
[4] = tested on: Human immunodeficiency virus 1; experiment: Antiviral activity against HIV1 harboring RT K103N/Y181C double mutant infected in human MT4 cells assessed as inhibition of viral cytopathogenicity after 5 days by MTT assay; assay type: functional, organism-based; settings: Human immunodeficiency virus 1, MT4, 120 h
[5] = biological target: Human immunodeficiency virus type 1 reverse transcriptase (Human immunodeficiency virus 1, UniProt Q72547); experiment: Inhibition of wild-type HIV1 reverse transcriptase p66/p51 after 40 mins by spectrophotometry
[6] = tested on: Human immunodeficiency virus 1; experiment: Ratio of delaviridine EC50 to compound EC50 for HIV1 3B infected in human MT4 cells; assay type: functional
[7] = tested on: Human immunodeficiency virus 1; experiment: Ratio of nevirapine EC50 to compound EC50 for HIV1 3B infected in human MT4 cells; assay type: functional

| SMILES | EC50 [1] [µM] | EC50 [2] [µM] | CC50 at 120 h [3] [µM] | EC50 [4] [µM] | IC50 [5] [µM] | Ratio EC50 [6] | Ratio EC50 [7] |
| --- | --- | --- | --- | --- | --- | --- | --- |
| N#Cc1ccc(Nc2nccc(C(O)(c3ccc(Br)cc3)C3CC3)n2)cc1 (configuration not stated) | > 33.2 | 3.11 | 33.2 | > 33.2 |  |  |  |
| CC(O)(c1ccc(F)cc1)c1ccnc(Nc2ccc(C#N)cc2)n1 (configuration not stated) | > 43.1 | 2.5 | 43.1 | > 43.1 |  |  |  |
| CC(C)Nc1cccnc1N1CCN(C(=O)c2cc3cc(NS(C)(=O)=O)ccc3[nH]2)CC1 [DELAVIRDINE] |  | 0.81 | > 43.8 | > 43.8 |  |  |  |
| C=CC(O)(c1ccc(Br)cc1)c1ccnc(Nc2ccc(C#N)cc2)n1 (configuration not stated) | > 31.7 | 0.355 | 31.7 | > 31.7 |  |  |  |
| CC(O)(c1cccc(Cl)c1)c1ccnc(Nc2ccc(C#N)cc2)n1 (configuration not stated) | > 37.5 | 0.257 | 37.5 | > 37.5 |  |  |  |
| CC(O)(c1ccnc(Nc2ccc(C#N)cc2)n1)c1cccc2ccccc12 (configuration not stated) | > 30.7 | 0.388 | 30.7 | > 30.7 |  |  |  |
| Cc1cc(C#N)cc(C)c1Oc1nc(Nc2ccc(C#N)cc2)nc(N)c1Br [ETRAVIRINE] | > 27.8 |  |  |  |  |  |  |
| CC(O)(c1cccc(F)c1)c1ccnc(Nc2ccc(C#N)cc2)n1 (configuration not stated) | > 49.6 | 0.201 | 53.2 | > 53.2 | 0.63 |  |  |
| Cc1cnc(Nc2ccc(C#N)cc2)nc1C(C)(O)c1ccc(C(C)(C)C)cc1 (configuration not stated) | > 31.1 | 7.21 | 31.1 | > 31.1 |  |  |  |
| O=C1Nc2ccc(Cl)cc2[C@@](C#CC2CC2)(C(F)(F)F)O1 [EFAVIRENZ] |  | 0.022 | > 6.3 |  |  |  |  |
| CC(O)(c1cccc(Br)c1)c1ccnc(Nc2ccc(C#N)cc2)n1 (configuration not stated) | > 33.7 | 0.191 | 33.7 | > 33.7 | 0.39 |  |  |
| Cc1cnc(Nc2ccc(C#N)cc2)nc1C(C)(O)c1ccc(F)cc1 (configuration not stated) | > 61.5 | > 61.5 | 61.5 |  |  |  |  |
| Cc1cc(C(C)(O)c2ccc(F)cc2)nc(Nc2ccc(C#N)cc2)n1 (configuration not stated) | > 38.2 | 3.55 | 38.2 | > 38.2 |  |  |  |
| CC(C)(C)c1ccc(C(C)(O)c2ccnc(Nc3ccc(C#N)cc3)n2)cc1 (configuration not stated) | > 31.8 | 0.564 | 31.8 | > 31.8 |  |  |  |
| Cc1ccc(C(C)(O)c2ccnc(Nc3ccc(C#N)cc3)n2)cc1 (configuration not stated) | > 39.9 | 0.067 | 39.3 | > 39.9 | 0.16 | 2 | 2 |
| CC(O)(c1ccc(Cl)cc1)c1ccnc(Nc2ccc(C#N)cc2)n1 (configuration not stated) | > 39 | 0.317 | 39 | > 39 |  |  |  |
| Cc1cc(C(C)(O)c2ccc(C(C)(C)C)cc2)nc(Nc2ccc(C#N)cc2)n1 (configuration not stated) | > 30.4 | 1.25 | 30.4 | > 30.4 |  |  |  |
| CC(O)(c1ccc(Br)cc1)c1ccnc(Nc2ccc(C#N)cc2)n1 (configuration not stated) | > 28.2 | 0.305 | 28.2 | > 28.2 |  |  |  |
| CC(O)(c1ccccc1)c1ccnc(Nc2ccc(C#N)cc2)n1 (configuration not stated) | > 45.4 | 0.288 | 45.4 | > 45.4 | 2 |  |  |
| CCC(O)(c1ccc(Br)cc1)c1ccnc(Nc2ccc(C#N)cc2)n1 (configuration not stated) | > 31.3 | 2.07 | 31.3 | > 31.3 |  |  |  |
| COc1ccc(C(C)(O)c2ccnc(Nc3ccc(C#N)cc3)n2)cc1 (configuration not stated) | > 35.9 | 0.346 | 35.9 | > 35.9 |  |  |  |
| Cc1cn([C@H]2C[C@H](N=[N+]=[N-])[C@@H](CO)O2)c(=O)[nH]c1=O [ZIDOVUDINE] |  |  | > 93.6 | 0.008 |  |  |  |
| Cc1ccnc2c1NC(=O)c1cccnc1N2C1CC1 [NEVIRAPINE] |  |  | > 15 | 0.901 |  |  |  |
